What is called IC50 is the point on the concentration scale where inhibition reaches its midpoint. A word on the half-life: it is the time needed for the level to fall by half in the phase considered.

SMILES strings stand for the structures. The source made the active and inactive calls.

Series [1] relates to HT-1080. The series is described as follows: Lethality in human HT-1080 cells assessed as inhibition of cell viability incubated for 24 hrs by MTT assay. To be noted: HT-1080, 24 h. It counts as functional, cell-based. (In general: Formazan colour is commonly taken as a measure of viable cells.)
The subject of series [2] is HT-1080. The series is described as follows: Lethality in human HT-1080 cells assessed as cell survival at 10 uM incubated for 24 hrs by MTT assay relative to control. It counts as functional. As to conditions: read-out: Activity.
Series [3] in a line: Metabolic stability in human liver microsomes assessed as intrinsic clearance measured per mg protein at 1 uM in presence of NADPH by LC-MS analysis. The format is ADME, Microsome. As to conditions: read-out: CLH. Background: Liver microsomes are vesicles of endoplasmic reticulum, rich in cytochrome P450 enzymes.
Series [4] is described as follows: Metabolic stability in […] rat microsomes assessed as half life at 1 uM in presence of NADPH by LC-MS analysis. The format is ADME, Liver, Microsome.
Series [5] in a line: Metabolic stability in rat liver microsomes assessed as intrinsic clearance measured per mg protein at 1 uM in presence of NADPH by LC-MS analysis. The format is ADME, Microsome. As to conditions: read-out: CLH.
Series [6] is described as follows: Metabolic stability in human liver microsomes assessed as half life at 1 uM in presence of NADPH by LC-MS analysis. It counts as ADME, Microsome.
Series [7] has as its target T1, Cystine/glutamate transporter (Homo sapiens) (UniProt Q9UPY5).
T1 sequence (whole entry): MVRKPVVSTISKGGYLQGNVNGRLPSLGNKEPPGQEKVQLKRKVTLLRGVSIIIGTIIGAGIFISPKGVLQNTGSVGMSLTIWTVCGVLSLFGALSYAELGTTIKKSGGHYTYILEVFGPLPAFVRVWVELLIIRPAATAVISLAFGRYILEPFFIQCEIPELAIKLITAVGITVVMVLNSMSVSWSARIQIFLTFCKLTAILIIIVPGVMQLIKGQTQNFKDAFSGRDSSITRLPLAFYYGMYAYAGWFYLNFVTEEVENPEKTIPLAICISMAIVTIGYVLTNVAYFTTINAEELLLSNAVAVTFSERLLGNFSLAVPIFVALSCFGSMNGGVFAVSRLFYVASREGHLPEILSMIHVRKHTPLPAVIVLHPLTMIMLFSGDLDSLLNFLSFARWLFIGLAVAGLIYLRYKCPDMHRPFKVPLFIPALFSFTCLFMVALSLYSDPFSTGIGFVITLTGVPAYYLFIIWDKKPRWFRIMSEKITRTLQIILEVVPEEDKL
The series is described as follows: Inhibition of Xc- in human HT-1080 cells assessed as decrease in glutamate release at 5 uM incubated for 3 hrs by Amplex red assay. It counts as cell-based.

Series [8] deals with T2, Phospholipid hydroperoxide glutathione peroxidase GPX4 (Homo sapiens) (UniProt P36969).
T2 sequence (whole entry): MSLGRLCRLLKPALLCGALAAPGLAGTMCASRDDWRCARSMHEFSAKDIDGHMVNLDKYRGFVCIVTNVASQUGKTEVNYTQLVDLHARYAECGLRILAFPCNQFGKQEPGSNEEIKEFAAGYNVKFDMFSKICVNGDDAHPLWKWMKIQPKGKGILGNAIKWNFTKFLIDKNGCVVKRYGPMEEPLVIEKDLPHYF
The series is described as follows: Inhibition of GPX4 in human HT-1080 cells at 5 uM incubated for 2 hrs. It counts as cell-based.

For the compound `CN(C)C(=O)c1ccc(N2CCC(Cn3c(C(F)(F)F)nc4ccccc43)CC2)cc1F`, the IC50 in series [1] was 2.11 µM.

`CN(C)C(=O)c1ccc(N2CCC(Cn3cnc4c(C(F)(F)F)cccc43)CC2)cc1Cl`: the viability at 10 µM in series [2] is < 50%.

As for `CN(C)C(=O)c1ccc(N2CCC(Cn3c(C(F)(F)F)nc4ccccc43)CC2)cc1`, the IC50 in series [1] turned out to be 3.06 µM.

Consider `CCOc1ccccc1Cc1nc2ccccc2n1CC1CCN(c2ccc(S(=O)(=O)N(C)C)cc2)CC1`, for which, in series [2], the viability at 10 µM was < 50%.

As for `COc1ccc(N2CCC(Cn3c(C(F)(F)F)nc4ccccc43)CC2)cc1Cl`, the viability at 10 µM in series [2] was < 50%.

Regarding `FC(F)(F)c1ccc(N2CCC(Cn3c(C(F)(F)F)nc4ccccc43)CC2)cc1Cl`, in series [2], the viability at 10 µM is < 50%.

Take `O=C(c1ccc(N2CCC(Cn3c(C(F)(F)F)nc4ccccc43)CC2)cc1)N1CCCC1`: the values for the microsomal CLint at 1 µM in series [3] and in series [5] were 105 µL/min/mg and 164 µL/min/mg, respectively. Moreover, the half-life at 1 µM in series [4] stood at 8.6 min; in series [6], 13.2 min. In addition, the half-maximal inhibitory concentration (IC50) in series [1] was found to be 1.49 µM.

On to `CN(C)S(=O)(=O)c1ccc(N2CCC(Cn3c(-c4ccccc4)nc4ccccc43)CC2)cc1`, for which, in series [2], the viability at 10 µM was < 50%.

For `COC(=O)c1ccc(N2CCC(Cn3c(C(F)(F)F)nc4ccccc43)CC2)cc1Cl`, in series [2], the viability at 10 µM is < 50%.

As for `CS(=O)(=O)c1cc(N2CCC(Cn3c(C(F)(F)F)nc4ccccc43)CC2)ccc1CO`, in series [1], the IC50 amounted to 7.47 µM.

Consider `CCOc1ccccc1-c1nc2ccccc2n1CC1CCN(c2ccc(S(=O)(=O)N(C)C)cc2)CC1`, for which the viability at 10 µM in series [2] was < 50%.

Consider `CC(C)(C)c1ccc(N2CCC(Cn3c(C(F)(F)F)nc4ccccc43)CC2)cc1`, for which the viability at 10 µM in series [2] is < 50%.

Take `CC(C)Oc1ccc(N2CCC(Cn3c(C(F)(F)F)nc4ccccc43)CC2)cc1Cl`: the viability at 10 µM in series [2] was < 50%.

Take `CN(C)c1ccc(CC(=O)N2CCC(Cn3c(C(F)(F)F)nc4ccccc43)CC2)cc1`: in series [1], the IC50 was determined as 3.48 µM.

Regarding `CN1C(=O)c2ccc(N3CCC(Cn4c(C(F)(F)F)nc5ccccc54)CC3)cc2C1=O`, the viability at 10 µM in series [2] is < 50%.

Consider `O=C(COc1ccc(Cl)cc1)N1CCC(Cn2c(C(F)(F)F)nc3ccccc32)CC1`, for which, in series [1], the IC50 turned out to be 3.16 µM.

As to `CC(=O)Nc1ccc(N2CCC(Cn3c(C(F)(F)F)nc4ccccc43)CC2)cc1Cl`, in series [2], the viability at 10 µM is < 50%.

For `CCN(CC)C(=O)c1ccc(N2CCC(Cn3c(C(F)(F)F)nc4ccccc43)CC2)cn1`, in series [1], the IC50 turned out to be 3.46 µM.

For `CCOc1ccccc1-n1c(C(C)N2CCN(C(=O)COc3ccc(Cl)cc3)CC2)nc2ccccc2c1=O` (stereo not given) [ERASTIN], the microsomal CLint at 1 µM in series [3] stood at 349 µL/min/mg; in series [5] it was 400 µL/min/mg. For the same compound, the half-life at 1 µM in series [4] turned out to be 3.5 min; in series [6], 4 min. The inhibition result in series [7] was “Active”. The IC50 in series [1] came out at 1.52 µM.

`FC(F)(F)c1nc2ccccc2n1CC1CCN(c2ccc(N3CCOCC3)c(Cl)c2)CC1`: in series [2], the viability at 10 µM was < 50%.

In the case of `CN(C)C(=O)c1ccc(N2CCC(Cn3c(C(F)(F)F)nc4ccccc43)CC2)cc1Cl`, the IC50 in series [1] came out at 2.53 µM.

Take `CCN(CC)C(=O)c1ccc(N2CCC(Cn3c(C(F)(F)F)nc4ccccc43)CC2)cc1`: in series [1], the IC50 was determined as 2.21 µM.

For the compound `CCOc1cccc(-c2nc3ccccc3n2CC2CCN(c3ccc(S(=O)(=O)N(C)C)cc3)CC2)c1`, the viability at 10 µM in series [2] is < 50%.

With `CN(C)c1ccc(C(=O)N2CCC(Cn3c(C(F)(F)F)nc4ccccc43)CC2)cc1`, in series [1], the IC50 stood at 8.17 µM.

As to `CN(C)C(=O)c1ccc(N2CCC(Cn3ccc4ccccc43)CC2)cc1Cl`, the viability at 10 µM in series [2] is < 50%.

`CC(C)c1ccc(N2CCC(Cn3c(C(F)(F)F)nc4ccccc43)CC2)cc1`: the viability at 10 µM in series [2] was < 50%.

With `CN(C)C(=O)c1cccc(N2CCC(Cn3c(C(F)(F)F)nc4ccccc43)CC2)c1`, the viability at 10 µM in series [2] was < 50%.

For `O=S(=O)(c1ccc(N2CCC(Cn3c(C(F)(F)F)nc4ccccc43)CC2)cc1)N1CCOCC1`, the microsomal CLint at 1 µM was 118 µL/min/mg in series [3] and 187 µL/min/mg in series [5]. Further, the half-life at 1 µM in series [4] came to 7.4 min; in series [6] it was 11.7 min. The IC50 in series [1] came to 1.89 µM.

`COC(=O)c1ccc([C@H]2c3[nH]c4ccccc4c3C[C@H](C(=O)OC)N2C(=O)CCl)cc1`: in series [8], the inhibition entry was “Active”.

In the case of `FC(F)(F)c1nc2ccccc2n1CC1CCN(c2ccc(C3CCCCC3)cc2)CC1`, the viability at 10 µM in series [2] was < 50%.

On to `CN(C)C(=O)c1ccc(N2CCC(Cn3cnc4ccccc43)CC2)cc1Cl`, for which the viability at 10 µM in series [2] was < 50%.

For the compound `COC(=O)c1ccc(N2CCC(Cn3c(C(F)(F)F)nc4ccccc43)CC2)cc1S(C)(=O)=O`, the IC50 in series [1] turned out to be 6.64 µM.

(Values after ChEMBL document CHEMBL5385865, “Discovery and optimization of 2-(trifluoromethyl)benzimidazole derivatives as novel ferroptosis inducers in vitro and in vivo” (Eur J Med Chem, 2023).)
